{"source": "patent US20230225984A1", "about": "“MONO- AND BIS-NITROSYLATED ALKYL POLYOLS FOR THERAPEUTIC USE” (priority 2020, published 2023)", "assay": "Stability of non-aqueous mixtures of 1-(nitrosooxy)-propan-2-ol and 2-(nitrosooxy)-propan-1-ol in 1,2-propanediol, GC analysis", "format": "physicochemical", "protocol": "Three different concentrations of 1-(nitrosooxy)-propan-2-ol and 2-(nitrosooxy)-propan-1-ol in 1,2-propanediol were prepared and stored in both a refrigerator (5° C.) and freezer (−20° C.). Aliquots of each solution were taken periodically and analysed by GC to determine the concentration of 1-(nitrosooxy)-propan-2-ol and 2-(nitrosooxy)-propan-1-ol.\nThe results of the GC analysis are shown in the table below (column: Rxi-5Sil MS, 20 m×0.18 mm, […]; carrier: He; Inlet: 250° C., split ratio 100:1; constant flow: 1.0 mL/min; oven temperature profile: 40° C. (3 min), 10° C./min, 80° C. (0 min), 30° C./min, 250° C. (3 min); FID: 300° C., H2 flow 30 mL/min, air flow 400 mL/min, make-up flow (N2) 25 mL/min; internal standard: 1,1,1,3,5,5,5-heptamethyl trisiloxane): […]", "key": {"[1]": {"settings": "Freezer (−20° C.), 10 days, Low conc. sample in 1,2-propanediol"}, "[2]": {"settings": "Freezer (−20° C.), 10 days, Medium conc. sample in 1,2-propanediol"}, "[3]": {"settings": "Freezer (−20° C.), 14 days, High conc. sample in 1,2-propanediol"}, "[4]": {"settings": "Freezer (−20° C.), 27 days, Low conc. sample in 1,2-propanediol"}, "[5]": {"settings": "Freezer (−20° C.), 27 days, Medium conc. sample in 1,2-propanediol"}, "[6]": {"settings": "Freezer (−20° C.), 28 days, High conc. sample in 1,2-propanediol"}, "[7]": {"settings": "Freezer (−20° C.), 56 days, High conc. sample in 1,2-propanediol"}, "[8]": {"settings": "Freezer (−20° C.), 64 days, Low conc. sample in 1,2-propanediol"}, "[9]": {"settings": "Freezer (−20° C.), 64 days, Medium conc. sample in 1,2-propanediol"}, "[10]": {"settings": "Freezer (−20° C.), 84 days, High conc. sample in 1,2-propanediol"}, "[11]": {"settings": "Freezer (−20° C.), 84 days, Low conc. sample in 1,2-propanediol"}, "[12]": {"settings": "Freezer (−20° C.), 84 days, Medium conc. sample in 1,2-propanediol"}, "[13]": {"settings": "Freezer (−20° C.), Start, High conc. sample in 1,2-propanediol"}, "[14]": {"settings": "Freezer (−20° C.), Start, Low conc. sample in 1,2-propanediol"}, "[15]": {"settings": "Freezer (−20° C.), Start, Medium conc. sample in 1,2-propanediol"}, "[16]": {"settings": "Refrigerator (5° C.), 10 days, Low conc. sample in 1,2-propanediol"}, "[17]": {"settings": "Refrigerator (5° C.), 10 days, Medium conc. sample in 1,2-propanediol"}, "[18]": {"settings": "Refrigerator (5° C.), 14 days, High conc. sample in 1,2-propanediol"}, "[19]": {"settings": "Refrigerator (5° C.), 27 days, Low conc. sample in 1,2-propanediol"}, "[20]": {"settings": "Refrigerator (5° C.), 27 days, Medium conc. sample in 1,2-propanediol"}, "[21]": {"settings": "Refrigerator (5° C.), 28 days, High conc. sample in 1,2-propanediol"}, "[22]": {"settings": "Refrigerator (5° C.), 56 days, High conc. sample in 1,2-propanediol"}, "[23]": {"settings": "Refrigerator (5° C.), 64 days, Low conc. sample in 1,2-propanediol"}, "[24]": {"settings": "Refrigerator (5° C.), 64 days, Medium conc. sample in 1,2-propanediol"}, "[25]": {"settings": "Refrigerator (5° C.), 84 days, High conc. sample in 1,2-propanediol"}, "[26]": {"settings": "Refrigerator (5° C.), 84 days, Low conc. sample in 1,2-propanediol"}, "[27]": {"settings": "Refrigerator (5° C.), 84 days, Medium conc. sample in 1,2-propanediol"}, "[28]": {"settings": "Refrigerator (5° C.), Start, High conc. sample in 1,2-propanediol"}, "[29]": {"settings": "Refrigerator (5° C.), Start, Low conc. sample in 1,2-propanediol"}, "[30]": {"settings": "Refrigerator (5° C.), Start, Medium conc. sample in 1,2-propanediol"}}, "data": [{"compound": "CC(O)CON=O", "note": "(stereo not drawn) [1-Nitrite, 1-(nitrosooxy)-propan-2-ol]", "values": [{"measurement": "Concentration (% w/w)", "setting": "[1]", "value": 0.08, "unit": "% w/w"}, {"measurement": "Concentration (% w/w)", "setting": "[2]", "value": 0.81, "unit": "% w/w"}, {"measurement": "Concentration (% w/w)", "setting": "[3]", "value": 3.76, "unit": "% w/w"}, {"measurement": "Concentration (% w/w)", "setting": "[4]", "value": 0.07, "unit": "% w/w"}, {"measurement": "Concentration (% w/w)", "setting": "[5]", "value": 0.74, "unit": "% w/w"}, {"measurement": "Concentration (% w/w)", "setting": "[6]", "value": 3.72, "unit": "% w/w"}, {"measurement": "Concentration (% w/w)", "setting": "[7]", "value": 3.55, "unit": "% w/w"}, {"measurement": "Concentration (% w/w)", "setting": "[8]", "value": 0.07, "unit": "% w/w"}, {"measurement": "Concentration (% w/w)", "setting": "[9]", "value": 0.74, "unit": "% w/w"}, {"measurement": "Concentration (% w/w)", "setting": "[10]", "value": 3.50, "unit": "% w/w"}, {"measurement": "Concentration (% w/w)", "setting": "[11]", "value": 0.08, "unit": "% w/w"}, {"measurement": "Concentration (% w/w)", "setting": "[12]", "value": 0.78, "unit": "% w/w"}, {"measurement": "Concentration (% w/w)", "setting": "[13]", "value": 3.75, "unit": "% w/w"}, {"measurement": "Concentration (% w/w)", "setting": "[14]", "value": 0.08, "unit": "% w/w"}, {"measurement": "Concentration (% w/w)", "setting": "[15]", "value": 0.81, "unit": "% w/w"}, {"measurement": "Concentration (% w/w)", "setting": "[16]", "value": 0.08, "unit": "% w/w"}, {"measurement": "Concentration (% w/w)", "setting": "[17]", "value": 0.86, "unit": "% w/w"}, {"measurement": "Concentration (% w/w)", "setting": "[18]", "value": 3.72, "unit": "% w/w"}, {"measurement": "Concentration (% w/w)", "setting": "[19]", "value": 0.09, "unit": "% w/w"}, {"measurement": "Concentration (% w/w)", "setting": "[20]", "value": 0.81, "unit": "% w/w"}, {"measurement": "Concentration (% w/w)", "setting": "[21]", "value": 3.67, "unit": "% w/w"}, {"measurement": "Concentration (% w/w)", "setting": "[22]", "value": 3.47, "unit": "% w/w"}, {"measurement": "Concentration (% w/w)", "setting": "[23]", "value": 0.07, "unit": "% w/w"}, {"measurement": "Concentration (% w/w)", "setting": "[24]", "value": 0.73, "unit": "% w/w"}, {"measurement": "Concentration (% w/w)", "setting": "[25]", "value": 3.33, "unit": "% w/w"}, {"measurement": "Concentration (% w/w)", "setting": "[26]", "value": 0.07, "unit": "% w/w"}, {"measurement": "Concentration (% w/w)", "setting": "[27]", "value": 0.77, "unit": "% w/w"}, {"measurement": "Concentration (% w/w)", "setting": "[28]", "value": 3.75, "unit": "% w/w"}, {"measurement": "Concentration (% w/w)", "setting": "[29]", "value": 0.08, "unit": "% w/w"}, {"measurement": "Concentration (% w/w)", "setting": "[30]", "value": 0.81, "unit": "% w/w"}]}, {"compound": "CC(CO)ON=O", "note": "(stereo not drawn) [2-Nitrite, 2-(nitrosooxy)-propan-1-ol]", "values": [{"measurement": "Concentration (% w/w)", "setting": "[1]", "value": 0.06, "unit": "% w/w"}, {"measurement": "Concentration (% w/w)", "setting": "[2]", "value": 0.63, "unit": "% w/w"}, {"measurement": "Concentration (% w/w)", "setting": "[3]", "value": 2.89, "unit": "% w/w"}, {"measurement": "Concentration (% w/w)", "setting": "[4]", "value": 0.06, "unit": "% w/w"}, {"measurement": "Concentration (% w/w)", "setting": "[5]", "value": 0.57, "unit": "% w/w"}, {"measurement": "Concentration (% w/w)", "setting": "[6]", "value": 2.93, "unit": "% w/w"}, {"measurement": "Concentration (% w/w)", "setting": "[7]", "value": 2.74, "unit": "% w/w"}, {"measurement": "Concentration (% w/w)", "setting": "[8]", "value": 0.06, "unit": "% w/w"}, {"measurement": "Concentration (% w/w)", "setting": "[9]", "value": 0.58, "unit": "% w/w"}, {"measurement": "Concentration (% w/w)", "setting": "[10]", "value": 2.71, "unit": "% w/w"}, {"measurement": "Concentration (% w/w)", "setting": "[11]", "value": 0.06, "unit": "% w/w"}, {"measurement": "Concentration (% w/w)", "setting": "[12]", "value": 0.62, "unit": "% w/w"}, {"measurement": "Concentration (% w/w)", "setting": "[13]", "value": 2.94, "unit": "% w/w"}, {"measurement": "Concentration (% w/w)", "setting": "[14]", "value": 0.06, "unit": "% w/w"}, {"measurement": "Concentration (% w/w)", "setting": "[15]", "value": 0.61, "unit": "% w/w"}, {"measurement": "Concentration (% w/w)", "setting": "[16]", "value": 0.06, "unit": "% w/w"}, {"measurement": "Concentration (% w/w)", "setting": "[17]", "value": 0.67, "unit": "% w/w"}, {"measurement": "Concentration (% w/w)", "setting": "[18]", "value": 2.91, "unit": "% w/w"}, {"measurement": "Concentration (% w/w)", "setting": "[19]", "value": 0.07, "unit": "% w/w"}, {"measurement": "Concentration (% w/w)", "setting": "[20]", "value": 0.63, "unit": "% w/w"}, {"measurement": "Concentration (% w/w)", "setting": "[21]", "value": 2.90, "unit": "% w/w"}, {"measurement": "Concentration (% w/w)", "setting": "[22]", "value": 2.69, "unit": "% w/w"}, {"measurement": "Concentration (% w/w)", "setting": "[23]", "value": 0.06, "unit": "% w/w"}, {"measurement": "Concentration (% w/w)", "setting": "[24]", "value": 0.57, "unit": "% w/w"}, {"measurement": "Concentration (% w/w)", "setting": "[25]", "value": 2.59, "unit": "% w/w"}, {"measurement": "Concentration (% w/w)", "setting": "[26]", "value": 0.06, "unit": "% w/w"}, {"measurement": "Concentration (% w/w)", "setting": "[27]", "value": 0.60, "unit": "% w/w"}, {"measurement": "Concentration (% w/w)", "setting": "[28]", "value": 2.94, "unit": "% w/w"}, {"measurement": "Concentration (% w/w)", "setting": "[29]", "value": 0.06, "unit": "% w/w"}, {"measurement": "Concentration (% w/w)", "setting": "[30]", "value": 0.61, "unit": "% w/w"}]}]}
